Target: FGFR4 (Homo sapiens (Human), UniProt P22455)
Test: FGFR Enzymatic Assay (FRET peptide phosphorylation), FGFR4
Conditions: IC50 ratio showing FGFR4 selectivity; pre-incubated for 4 hours
From the text: The enzymes were purchased from Millipore or Invitrogen.
GraphPad prism3 was used to analyze the data. The IC50 values were derived by fitting the data to the equation for a sigmoidal dose-response with a variable slope. Y=Bottom+(Top−Bottom)/(1+10^((Log IC50−X)*HillSlope)) where X is the logarithm of concentration and Y is the response.

Chain of FGFR4 (P22455 22-802): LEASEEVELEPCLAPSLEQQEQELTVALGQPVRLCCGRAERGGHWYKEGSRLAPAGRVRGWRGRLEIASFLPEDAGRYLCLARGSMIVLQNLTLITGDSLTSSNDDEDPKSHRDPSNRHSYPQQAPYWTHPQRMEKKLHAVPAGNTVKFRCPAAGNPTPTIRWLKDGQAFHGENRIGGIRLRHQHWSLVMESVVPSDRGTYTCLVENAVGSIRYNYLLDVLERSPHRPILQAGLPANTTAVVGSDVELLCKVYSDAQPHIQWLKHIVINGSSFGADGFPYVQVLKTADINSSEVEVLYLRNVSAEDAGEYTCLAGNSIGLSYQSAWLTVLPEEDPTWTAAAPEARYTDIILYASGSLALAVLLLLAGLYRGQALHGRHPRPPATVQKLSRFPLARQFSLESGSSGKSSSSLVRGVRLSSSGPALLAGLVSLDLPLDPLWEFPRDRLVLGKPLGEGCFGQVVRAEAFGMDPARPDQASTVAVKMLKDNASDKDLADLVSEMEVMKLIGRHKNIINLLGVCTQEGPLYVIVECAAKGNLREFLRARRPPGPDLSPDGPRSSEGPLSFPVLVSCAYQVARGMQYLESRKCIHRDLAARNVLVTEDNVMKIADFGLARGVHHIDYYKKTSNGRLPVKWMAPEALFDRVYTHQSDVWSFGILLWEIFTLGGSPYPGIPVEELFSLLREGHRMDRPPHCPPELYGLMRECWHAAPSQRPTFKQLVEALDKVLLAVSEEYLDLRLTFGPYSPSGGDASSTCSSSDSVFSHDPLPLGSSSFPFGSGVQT

Row | FGFR1/FGFR4 | FGFR2/FGFR4 | FGFR3/FGFR4 | Structure (SMILES)
1 | >100 | >100 | >100 | C=CC(=O)Nc1cnn(Cc2cnn(C)c2)c1-c1cc2c(cn1)CN(c1c(F)c(OC)cc(OC)c1F)C(=O)C21CC1 [Example 27, N-(5-(2′-(2,6-difluoro-3,5-dimethoxyphenyl)-3′-oxo-2′,3′-dihydro-1′H-spiro[cyclopropane-1,4′-[2,7]naphthyridine]-6′-yl)-1-((1-methyl-1H-pyrazol-4-yl)methyl)-1H-pyrazol-4-yl)acrylamide]
2 | >100 | >100 | >100 | C=CC(=O)Nc1cnn(C[C@@H]2CCOC2)c1-c1cc2c(cn1)CN(c1c(F)c(OC)cc(OC)c1F)C(=O)C21CC1 [Example 28, (S)-N-(5-(2′-(2,6-difluoro-3,5-dimethoxyphenyl)-3′-oxo-2′,3′-dihydro-1′H-spiro[cyclopropane-1,4′-[2,7]naphthyridine]-6′-yl)-1-((tetrahydrofuran-3-yl)methyl)-1H-pyrazol-4-yl)acrylamide]
3 | >100 | >100 | >100 | C=CC(=O)Nc1cnn(C[C@H]2CCOC2)c1-c1cc2c(cn1)CN(c1c(F)c(OC)cc(OC)c1F)C(=O)C21CC1 [Example 29, (R)-N-(5-(2′-(2,6-difluoro-3,5-dimethoxyphenyl)-3′-oxo-2′,3′-dihydro-1′H-spiro[cyclopropane-1,4′-[2,7]naphthyridine]-6′-yl)-1-((tetrahydrofuran-3-yl)methyl)-1H-pyrazol-4-yl)acrylamide]
4 | >100 | >100 | >100 | C=CC(=O)Nc1cnn(C[C@H]2CCCO2)c1-c1cc2c(cn1)CN(c1c(F)c(OC)cc(OC)c1F)C(=O)C21CC1 [Example 30, (R)-N-(5-(2′-(2,6-difluoro-3,5-dimethoxyphenyl)-3′-oxo-2′,3′-dihydro-1′H-spiro[cyclopropane-1,4′-[2,7]naphthyridine]-6′-yl)-1-((tetrahydrofuran-2-yl)methyl)-1H-pyrazol-4-yl)acrylamide]
5 | >100 | >100 | >100 | C=CC(=O)Nc1cn(CCOC)nc1-c1cc2c(cn1)CN(c1c(F)c(OC)cc(OC)c1F)C(=O)C21CC1 [Example 32, N-(3-(2′-(2,6-difluoro-3,5-dimethoxyphenyl)-3′-oxo-2′,3′-dihydro-1′H-spiro[cyclopropane-1,4′-[2,7]naphthyridine]-6′-yl)-1-(2-methoxyethyl)-1H-pyrazol-4-yl)acrylamide]
6 | >100 | >100 | >100 | C=CC(=O)Nc1cn(CCOC(F)(F)F)nc1-c1cc2c(cn1)CN(c1c(F)c(OC)cc(OC)c1F)C(=O)C21CC1 [Example 33, N-(3-(2′-(2,6-difluoro-3,5-dimethoxyphenyl)-3′-oxo-2′,3′-dihydro-1′H-spiro[cyclopropane-1,4′-[2,7]naphthyridine]-6′-yl)-1-(2-(trifluoromethoxy)ethyl)-1H-pyrazol-4-yl)acrylamide]
7 | >100 | >100 | >100 | C=CC(=O)Nc1cn(CCN2CCOCC2)nc1-c1cc2c(cn1)CN(c1c(F)c(OC)cc(OC)c1F)C(=O)C21CC1 [Example 34, N-(3-(2′-(2,6-difluoro-3,5-dimethoxyphenyl)-3′-oxo-2′,3′-dihydro-1′H-spiro[cyclopropane-1,4′-[2,7]naphthyridine]-6′-yl)-1-(2-morpholinoethyl)-1H-pyrazol-4-yl)acrylamide]
8 | >100 | >100 | >100 | C=CC(=O)Nc1cn(CC2CCOCC2)nc1-c1cc2c(cn1)CN(c1c(F)c(OC)cc(OC)c1F)C(=O)C21CC1 [Example 35, N-(3-(2′-(2,6-difluoro-3,5-dimethoxyphenyl)-3′-oxo-2′,3′-dihydro-1′H-spiro[cyclopropane-1,4′-[2,7]naphthyridine]-6′-yl)-1-((tetrahydro-2H-pyran-4-yl)methyl)-1H-pyrazol-4-yl)acrylamide]

Source: patent US10016438B2, “Bicyclic heterocycles as FGFR4 inhibitors” (Incyte Corporation, priority 2015, dated 2018)
